The values that follow are results of earlier work, collected in publication PMC4862372 (Bioorganic & medicinal chemistry, 2016).

The series relates to Huh7 cells. As to conditions: high-throughput screen performed by GNF.

Regarding `O=C(NCCc1nc(-c2ccccc2)cs1)c1ccccc1` [Compound 1, 2-(2-Benzamido)ethyl-4-phenylthiazole], the “Toxicity to mammalian (Huh7) cells” value was “non-toxic”.
